Reference: ChEMBL document CHEMBL1201862, “PubChem BioAssay data set” (2004)
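Dose response: 5 concentrations. Exposure: 48 h. Format: 96-well plates. Endpoint: linear interpolation; highest concentration if not reached. Here, GI50 denotes the concentration required for 50% inhibition of growth.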 Calls of active or inactive are those of the source. Rule as the data show it: active = GI50 up to about 1.1 µM and inactive = higher.

What was measured:
Test in all cases: NCI anticancer screen, dose series, 48 h
A498 = tested on: A498
A549 = tested on: A549
SK-OV-3 = tested on: SK-OV-3
MDA-N = tested on: MDA-N
HCC 2998 = tested on: HCC 2998
SW-620 = tested on: SW-620
HOP-62 = tested on: HOP-62
CCRF-CEM = tested on: CCRF-CEM
SK-MEL-2 = tested on: SK-MEL-2
MDA-MB-231 = tested on: MDA-MB-231
M14 = tested on: M14
SK-MEL-28 = tested on: SK-MEL-28
MDA-MB-435 = tested on: MDA-MB-435
IGROV-1 = tested on: IGROV-1
OVCAR-3 = tested on: OVCAR-3
MCF7 = tested on: MCF7
BT-549 = tested on: BT-549
RXF 393 = tested on: RXF 393
RPMI-8226 = tested on: RPMI-8226
Malme-3M = tested on: Malme-3M

Measured: GI50

CCN1C(Cl)=NS(=O)(=O)c2ccccc21
inactive: A498 22.4 µM | A549 > 100 µM | SK-OV-3 71.6 µM | MDA-N 29.1 µM | HCC 2998 20.3 µM | SW-620 28.1 µM | HOP-62 25.2 µM | CCRF-CEM 3.9 µM | SK-MEL-2 39.7 µM | MDA-MB-231 23 µM | M14 14.9 µM | SK-MEL-28 74.8 µM | MDA-MB-435 49.7 µM | IGROV-1 23.1 µM | OVCAR-3 19.3 µM | MCF7 27.5 µM | BT-549 17.5 µM | RXF 393 17.3 µM

Cn1c2ccccc2c(=O)c2cccc(C(=O)NC(CCC(N)=O)C(=O)O)c21 (stereo not drawn)
inactive: A498 > 100 µM | A549 > 100 µM | SK-OV-3 > 100 µM | MDA-N > 100 µM | HCC 2998 > 100 µM | SW-620 > 100 µM | HOP-62 > 100 µM | SK-MEL-2 > 100 µM | MDA-MB-231 > 100 µM | RPMI-8226 > 100 µM | M14 > 100 µM | Malme-3M > 100 µM | SK-MEL-28 > 100 µM | MDA-MB-435 > 100 µM | IGROV-1 > 100 µM | OVCAR-3 > 100 µM | MCF7 > 100 µM | BT-549 > 100 µM

CC1=NN2C=Nc3c(c(-c4ccc(Cl)cc4)cn3-c3ccc(C)cc3)C2N1 (stereo not drawn)
inactive: A498 > 100 µM | A549 > 100 µM | SK-OV-3 61.9 µM | MDA-N > 100 µM | HCC 2998 > 100 µM | SW-620 > 100 µM | HOP-62 36.5 µM | CCRF-CEM > 100 µM | SK-MEL-2 > 100 µM | MDA-MB-231 71.1 µM | M14 > 100 µM | Malme-3M > 100 µM | SK-MEL-28 > 100 µM | MDA-MB-435 > 100 µM | IGROV-1 76.6 µM | OVCAR-3 > 100 µM | MCF7 > 100 µM | BT-549 > 100 µM | RXF 393 42.5 µM

C[C@@H]1C(=O)CC2(O)[C@@]13C[C@@H](OC(=O)[C@@H]3O)[C@@H](C)[C@@]21COC1=O (stereo partly drawn)
inactive: A549 > 100 µM | SK-OV-3 > 100 µM | MDA-N > 100 µM | HCC 2998 > 100 µM | SW-620 > 100 µM | HOP-62 > 100 µM | CCRF-CEM > 100 µM | SK-MEL-2 > 100 µM | MDA-MB-231 > 100 µM | RPMI-8226 > 100 µM | M14 > 100 µM | Malme-3M > 100 µM | SK-MEL-28 > 100 µM | MDA-MB-435 > 100 µM | IGROV-1 > 100 µM | OVCAR-3 > 100 µM | MCF7 > 100 µM | BT-549 > 100 µM | RXF 393 > 100 µM

CC(=O)OC1CC2(C)C(=CC1C1SCCS1)CCC1C2CCC2(C)C(OC(C)=O)CCC12 (stereo not drawn)
inactive: A498 70 µM | A549 > 100 µM | SK-OV-3 27.9 µM | MDA-N > 100 µM | SW-620 > 100 µM | HOP-62 97.5 µM | CCRF-CEM > 100 µM | SK-MEL-2 45.4 µM | MDA-MB-231 34.9 µM | RPMI-8226 > 100 µM | M14 > 100 µM | Malme-3M > 100 µM | SK-MEL-28 > 100 µM | MDA-MB-435 > 100 µM | IGROV-1 > 100 µM | OVCAR-3 > 100 µM | MCF7 68.4 µM | BT-549 > 100 µM | RXF 393 19.3 µM

COc1ccc2[nH]c3cc4c(=O)c5cc(OC)ccc5[nH]c4cc3c(=O)c2c1
inactive: A498 > 100 µM | A549 > 100 µM | SK-OV-3 > 100 µM | MDA-N > 100 µM | HCC 2998 > 100 µM | SW-620 > 100 µM | HOP-62 69.5 µM | SK-MEL-2 > 100 µM | MDA-MB-231 > 100 µM | RPMI-8226 > 100 µM | M14 > 100 µM | Malme-3M > 100 µM | SK-MEL-28 > 100 µM | MDA-MB-435 > 100 µM | IGROV-1 > 100 µM | OVCAR-3 > 100 µM | MCF7 > 100 µM | BT-549 > 100 µM | RXF 393 > 100 µM

O=C1CC2CCC(C1)[S+]2[O-] (stereo not drawn)
inactive: A549 > 100 µM | SK-OV-3 > 100 µM | MDA-N > 100 µM | HCC 2998 > 100 µM | SW-620 > 100 µM | HOP-62 > 100 µM | CCRF-CEM > 100 µM | SK-MEL-2 > 100 µM | MDA-MB-231 > 100 µM | RPMI-8226 > 100 µM | M14 > 100 µM | Malme-3M > 100 µM | SK-MEL-28 > 100 µM | MDA-MB-435 > 100 µM | IGROV-1 > 100 µM | OVCAR-3 > 100 µM | MCF7 > 100 µM | BT-549 > 100 µM | RXF 393 > 100 µM

CC(c1ccccc1)n1cncc1C(=O)NN1CCN(C)CC1 (stereo not drawn)
inactive: A498 > 10 µM | A549 > 10 µM | SK-OV-3 > 10 µM | MDA-N > 10 µM | SW-620 > 10 µM | HOP-62 > 10 µM | CCRF-CEM > 10 µM | SK-MEL-2 > 10 µM | MDA-MB-231 > 10 µM | RPMI-8226 > 10 µM | M14 > 10 µM | Malme-3M > 10 µM | SK-MEL-28 > 10 µM | MDA-MB-435 > 10 µM | IGROV-1 > 10 µM | OVCAR-3 > 10 µM | MCF7 > 10 µM | BT-549 > 10 µM | RXF 393 > 10 µM

O=C1OC(C2(O)OC(=O)c3ccccc32)c2ccccc21 (stereo not drawn)
inactive: A498 > 100 µM | A549 > 100 µM | SK-OV-3 > 100 µM | MDA-N > 100 µM | HCC 2998 > 100 µM | SW-620 > 100 µM | HOP-62 > 100 µM | SK-MEL-2 > 100 µM | MDA-MB-231 > 100 µM | RPMI-8226 > 100 µM | M14 > 100 µM | SK-MEL-28 > 100 µM | MDA-MB-435 > 100 µM | IGROV-1 > 100 µM | OVCAR-3 > 100 µM | MCF7 > 100 µM | BT-549 > 100 µM | RXF 393 > 100 µM

Oc1ccc2cc(Br)ccc2c1-c1c(O)ccc2ccc(Br)cc12
inactive: A498 17.3 µM | A549 15.2 µM | SK-OV-3 12.2 µM | MDA-N 12.2 µM | HCC 2998 6.52 µM | SW-620 11.7 µM | HOP-62 14.7 µM | CCRF-CEM 13 µM | SK-MEL-2 16 µM | MDA-MB-231 10 µM | M14 17.8 µM | Malme-3M 13.4 µM | SK-MEL-28 18.7 µM | MDA-MB-435 16.2 µM | IGROV-1 8.3 µM | OVCAR-3 13.9 µM | MCF7 13 µM | BT-549 14.7 µM

CCCCCCCCCCC(O)C1CCC(C2CCC(C(O)CCCCC(O)CCCCCC(O)CC3=CC(C)OC3=O)O2)O1 (stereo not drawn)
inactive: A498 > 25 µM | A549 > 20.9 µM | SK-OV-3 > 25 µM | MDA-N 3.86 µM | HCC 2998 > 25 µM | SW-620 > 25 µM | HOP-62 > 25 µM | SK-MEL-2 > 25 µM | MDA-MB-231 > 25 µM | RPMI-8226 > 16.4 µM | M14 > 25 µM | Malme-3M > 25 µM | SK-MEL-28 > 25 µM | MDA-MB-435 > 25 µM | IGROV-1 3.72 µM | OVCAR-3 > 25 µM | MCF7 1.18 µM | BT-549 > 25 µM | RXF 393 > 17.2 µM

O=C(NCCCN(CCCCN(CCCNC(=O)C(F)(F)F)Cc1ccccc1)Cc1ccccc1)C(F)(F)F
inactive: A498 20.6 µM | A549 24.2 µM | SK-OV-3 20.1 µM | MDA-N 15.7 µM | HCC 2998 4.24 µM | SW-620 16.5 µM | CCRF-CEM 16.2 µM | MDA-MB-231 17.5 µM | RPMI-8226 16 µM | M14 3.49 µM | Malme-3M 15.1 µM | SK-MEL-28 12.6 µM | MDA-MB-435 18.3 µM | IGROV-1 13.4 µM | MCF7 12.3 µM | BT-549 14.9 µM | RXF 393 14.8 µM

C=C1C2CCC3C4(C)CCCC(C)(C(=O)O)C4CCC3(C2)C1OC(=O)/C(C)=C/C (stereo not drawn)
inactive: A498 25.3 µM | A549 35.9 µM | SK-OV-3 27.5 µM | MDA-N 22.6 µM | HCC 2998 26.7 µM | SW-620 61.7 µM | HOP-62 45.6 µM | CCRF-CEM 53.2 µM | SK-MEL-2 36.1 µM | MDA-MB-231 20.9 µM | M14 20.8 µM | Malme-3M 30 µM | SK-MEL-28 51.6 µM | MDA-MB-435 34 µM | IGROV-1 27.1 µM | OVCAR-3 19.8 µM | MCF7 32.7 µM | BT-549 41.8 µM | RXF 393 15.9 µM

CSc1ccn(C2CC(F)C(CO)O2)c(=O)n1 (stereo not drawn)
inactive: A498 > 100 µM | A549 > 100 µM | SK-OV-3 > 100 µM | MDA-N > 100 µM | HCC 2998 > 100 µM | SW-620 > 100 µM | HOP-62 > 100 µM | CCRF-CEM > 100 µM | SK-MEL-2 > 100 µM | MDA-MB-231 > 100 µM | M14 > 100 µM | Malme-3M > 100 µM | MDA-MB-435 > 100 µM | IGROV-1 > 100 µM | OVCAR-3 > 100 µM | MCF7 > 100 µM | BT-549 > 100 µM | RXF 393 > 100 µM

S=c1cc(-c2ccc3c(c2)OCO3)s[nH]1
inactive: A498 46.6 µM | A549 > 100 µM | SK-OV-3 > 100 µM | MDA-N > 100 µM | SW-620 > 100 µM | HOP-62 > 100 µM | CCRF-CEM > 100 µM | SK-MEL-2 > 100 µM | MDA-MB-231 > 100 µM | RPMI-8226 > 100 µM | M14 > 100 µM | Malme-3M > 100 µM | SK-MEL-28 > 100 µM | MDA-MB-435 > 100 µM | IGROV-1 > 100 µM | OVCAR-3 > 100 µM | MCF7 > 100 µM | BT-549 > 100 µM | RXF 393 > 100 µM
